Test: Solubility in organic solvents
Assay type: physicochemical

CC(C)(Br)C(=O)NCC1CC2C=CC1C2 (stereo not drawn) [NBTMBr]
Solubility: completely soluble in (solvents) (at 60° C.): completely in N,N-dimethylacetamide (DMAc) | Solubility: partially soluble in (solvents) (at 60° C.): partially in toluene, benzene, hexane and N-methyl-2-pyrrolidinone (NMP) | Solubility: soluble in (solvents) (at room temperature): soluble in acetone, pyridine, ethanol, methanol, methylene chloride, tetrahydrofuran, N,N-dimethylformamide (DMF) and dimethylsulfoxide (DMSO)

From patent publication US20050182220A1, “Novel functional norbornenes as initiators for radical polymerization, their polymeric derivatives and a process for producing the same” (priority 2004, published 2005)
